Measurements: ChEMBL document CHEMBL1143515, “Structure-activity relationships of 1'S-1'-acetoxychavicol acetate for inhibitory effect on NO production in lipopolysaccharide-activated mouse peritoneal macrophages” (Bioorg Med Chem Lett, 2005)

Tests used:
Mus musculus [1] = species on record: Mus musculus; assay: Inhibitory concentration of compound on nitric oxide (NO) production in lipopolysaccharide activated mouse peritoneal macrophages; assay type: functional
Mus musculus [2] = species on record: Mus musculus; assay: Percent inhibition of nitric oxide (NO) production in lipopolysaccharide activated mouse peritoneal macrophages at 100 uM of compound; assay type: functional
[3] = Concentration with cytotoxic effect on mouse peritoneal macrophages

Structure (SMILES)	IC50 (Mus musculus [1]; read-out: IC50) [µM]	Inhibition (Mus musculus [2]) [%]	Cytotoxicity [3] [µM]	IC50 (Mus musculus [1]) [µg/mL]
COc1cc(/C=C/C(=O)O)cc(OC)c1O [SINAPINATE]	> 100	27	–	–
C=CC(O)c1ccc(OC)cc1 (configuration not stated)	> 30	-3	100	–
C=C[C@H](O)c1ccccc1	> 100	19	–	–
CC(C)=O [ACETONE]	–	–	–	7.3
CC[C@H](OC(C)=O)c1ccccc1	> 100	25	–	–
O=C(O)/C=C/c1ccc(O)c(O)c1 [CAFFEIC ACID]	> 100	15	–	–
C=CCc1ccc(OC)c(OC)c1 [METHYLEUGENOL]	> 100	1	–	–
C=CCc1ccc(O[C@@H]2O[C@H](CO)[C@@H](O)[C@H](O)[C@H]2O)cc1	> 100	6	–	–
C=CCC(O)c1ccc(O)cc1 (configuration not stated)	> 100	13	–	–
N=C(N)NCCSSCCNC(=N)N [GUANIDINOETHYLDISULFIDE]	7.4	–	–	–
C=CC(O)c1ccccc1O (configuration not stated)	> 100	0	–	–
C=CCc1ccc(O)c(OC)c1 [EUGENOL]	> 100	15	–	–
C=CC(O)c1ccc(O)cc1 (configuration not stated)	> 100	-1	–	–
C=C[C@H](OC(C)=O)c1ccccc1	> 100	20	–	–
C=CCc1ccc(O)c(O)c1 [HYDROXYCHAVICOL]	15	–	–	–
CCC(O)c1ccc(O)cc1 (configuration not stated)	> 100	11	–	–
C=CC(OC(C)=O)c1cccc(O)c1 (configuration not stated)	> 100	25	–	–
CC[C@H](O)c1ccccc1	> 100	-4	–	–
C=CCc1ccc(O)cc1 [CHAVICOL]	> 100	43	–	–
O=C(O)/C=C/c1ccccc1 [CINNAMIC ACID]	> 100	15	–	–
O=C(O)/C=C/c1ccccc1O [O-COUMARIC ACID]	> 100	7	–	–
C=C[C@H](OC(C)=O)c1ccc(OC(C)=O)cc1 [1'-ACETOXYCHAVICOL ACETATE]	2.3	–	–	–
C=CC(O)c1cccc(O)c1 (configuration not stated)	> 100	1	–	–

Continued, in another order:

IC50 (Mus musculus [1]; read-out: IC50) [µM]	Structure (SMILES)	Inhibition (Mus musculus [2]) [%]	Cytotoxicity [3] [µM]	IC50 (Mus musculus [1]) [µg/mL]
65	C=CCc1ccc(OC(C)=O)cc1	–	–	–
> 100	C=C[C@H](O)c1ccc(OC(C)=O)cc1	46	–	–
20	O=C/C=C/c1ccc(O)cc1 [p-HYDROXYCINNAMALDEHYDE]	–	–	–
19	CC(=O)OC/C=C/c1ccc(OC(C)=O)cc1	–	–	–
> 100	OC/C=C/c1ccc(O)cc1	24	–	–
8.2	C=C[C@@H](OC(C)=O)c1ccc(OC(C)=O)cc1	–	–	–
72	CC(=O)OC/C=C/c1ccc(O)cc1	–	–	–
9.2	C=CCC(OC(C)=O)c1ccc(OC(C)=O)cc1 (configuration not stated)	–	–	–
99	CCC(OC(C)=O)c1ccccc1OC(C)=O (configuration not stated)	–	–	–
> 100	COc1ccc(/C=C/C(=O)O)cc1OC [O,O'-DIMETHYLCAFFEIC ACID]	1	–	–
> 100	C=CC(OC(C)=O)c1cccc(OC(C)=O)c1 (configuration not stated)	20	–	–
4.9	C=CC(OC(C)=O)c1ccc(OC(C)=O)cc1 (configuration not stated)	–	–	–
3.2	C=CC(OC(C)=O)c1ccccc1OC(C)=O (configuration not stated)	–	–	–
59	CCC(=O)Oc1ccc(C(CC)OC(=O)CC)cc1 (configuration not stated)	–	–	–
> 100	O=C(O)/C=C/c1cccc(O)c1	3	–	–
> 100	COc1ccc(/C=C/C(=O)O)cc1 [4-METHOXYCINNAMIC ACID]	27	–	–
10	CCC(OC(C)=O)c1ccc(OC(C)=O)cc1 (configuration not stated)	–	–	–
30	C=CC(OC(=O)CC)c1ccc(OC(=O)CC)cc1 (configuration not stated)	–	–	–
15	O=C(/C=C/c1ccc(O)c(O)c1)OCCc1ccccc1 [CAFFEIC ACID PHENETHYL ESTER]	–	–	–
47	CCCC(OC(C)=O)c1ccc(OC(C)=O)cc1 (configuration not stated)	–	–	–
> 100	C=CC(OC)c1ccc(OC)cc1 (configuration not stated)	22	–	–
11	C=C[C@H](OC(C)=O)c1ccc(OC(C)=O)c(OC)c1	–	–	–
